What all share (test): growth of human tumour cells (NCI), 48 h
For assay [1], the system named is MOLT-4 leukemia.
Assay [2] deals with TK-10 renal.
Assay [3] deals with RPMI-8226 leukemia.
Assay [4] concerns PC-3 prostate.
For assay [5], the system named is MCF7 breast.
The subject of assay [6] is OVCAR-3 ovarian.
The subject of assay [7] is OVCAR-8 ovarian.
For assay [8], the system named is MDA-N.
Assay [9] relates to HCT-116 colon.
The test system of assay [10] is SK-MEL-28 melanoma.

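Following 48 hours of exposure in 96-well plates, responses at five concentrations were used to interpolate endpoints linearly. TGI: concentration producing complete growth inhibition.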

This is an account of results in PubChem BioAssay (NCI).

In the case of `C[N+](C)(C)C=Nc1cccc2c1CCCC2`, the TGI in assay [1], in [2], in assay [3], in assay [4], in [5] and in assay [6] was more than 100 µM in each case. For the same molecule, the TGI in assay [7], in assay [8], in [9] and in assay [10] was more than 100 µM in each case.
Consider `CCOC(=O)NNC(=O)NCc1ccccc1CNC(=O)NNC(=O)OCC`, for which the TGI in [1], in assay [2], in assay [3], in assay [4], in assay [5] and in assay [6] was more than 100 µM throughout. The TGI in assay [7], in assay [8], in assay [9] and in assay [10] was more than 100 µM throughout.
As for `Cc1nc2n(c1/C=C1/C(=O)Nc3ccccc31)CCS2`, the TGI in [1], in assay [2], in assay [3], in [4], in [5] and in assay [6] was more than 100 µM throughout. Besides, the TGI in [7] was more than 100 µM; in assay [8], 44.4 µM; in assay [9] it was more than 100 µM; in assay [10], more than 100 µM.
As for `CO[C@H]1O[C@@H]2CO[C@@H](c3ccccc3)O[C@H]2[C@@H]2C/C=C\CCC[C@@]12O`, the TGI in [1] is 42.2 µM; in assay [2], more than 100 µM; in assay [3], 44.2 µM; in assay [4], 77.1 µM; in assay [5], 44.9 µM; in assay [6], 30.5 µM. The TGI is more than 100 µM in assay [7], 60.8 µM in [8], 30.9 µM in assay [9] and 89.1 µM in assay [10].
For `O=C(Sc1c(-c2ccccc2)c(=O)n(-c2ccccc2)c(=S)n1-c1ccccc1)c1cccs1`, the TGI in assay [1] was 86 µM; in assay [2], more than 100 µM; in assay [3] it was more than 100 µM; in assay [4], more than 100 µM; in assay [5], more than 100 µM; in assay [6], more than 100 µM. The TGI in [7], in [8], in assay [9] and in assay [10] was more than 100 µM in each case.
Regarding `CC(C)(C)CC(C)(C)NC(=S)NO`, the TGI in assay [1], in assay [2], in [3], in assay [4], in assay [5] and in assay [6] was more than 100 µM in each case. In addition, the TGI in [7], in [8], in [9] and in assay [10] was more than 100 µM in each case.
As to `Cc1ccc(-c2cc(O)c3nc4ccccc4n3c2)cc1`, the TGI in assay [1], in assay [2], in [3], in assay [4], in assay [5] and in assay [6] was more than 100 µM in each case. Moreover, the TGI in assay [7], in assay [8], in assay [9] and in assay [10] was more than 100 µM throughout.
In the case of `CN1CN(c2ccccc2)C2(CCN(CCCCCCF)CC2)C1=O`, the TGI in assay [1] is more than 100 µM; in assay [2] it was more than 100 µM; in assay [3], more than 100 µM; in assay [4] it was more than 100 µM; in assay [5] it was 60.6 µM; in [6], more than 100 µM. The TGI in assay [7], in assay [8], in assay [9] and in [10] was more than 100 µM in each case.
In the case of `O=C(O)CC[P+](c1ccccc1)(c1ccccc1)c1ccccc1`, the TGI in [1] was more than 100 µM; in [2] it was more than 100 µM; in assay [3], 19.9 µM; in assay [4], more than 100 µM; in assay [5], more than 100 µM; in assay [6], 56.5 µM. For the same molecule, the TGI in assay [7], in [8], in assay [9] and in assay [10] was more than 100 µM in each case.
As for `CC(C)=CCOc1cc(NC(=S)c2ccsc2C)ccc1Cl`, the TGI in [1] was more than 100 µM; in [2] it was more than 100 µM; in assay [3], 53.1 µM; in assay [4] it was more than 100 µM; in [5], more than 100 µM; in [6], more than 100 µM. The TGI in [7], in assay [8], in [9] and in assay [10] was more than 100 µM in each case.
Turning to `CC(C)(O)C1CC[C@]2(C)[C@H]3CC[C@@H]4[C@@]5(C)CCCC(C)(C)[C@@H]5CC[C@@]4(C)[C@]3(C)CC[C@@H]12` (stereo not given in full), the TGI in assay [1], in assay [2], in assay [3], in [4], in assay [5] and in assay [6] was more than 100 µM each time. Also, the TGI in assay [7], in assay [8], in assay [9] and in assay [10] was more than 100 µM each time.
Take `Cc1ccc(NC2=NCCO2)c2c1CCC2`: the TGI in assay [1] was more than 100 µM; in [2] it was more than 100 µM; in [3], more than 100 µM; in assay [4], more than 100 µM; in [5] it was more than 100 µM; in [6], 67.9 µM. Moreover, the TGI was more than 100 µM in assay [7], 38.5 µM in assay [8], 80 µM in [9] and more than 100 µM in assay [10].
For `NC(Cc1c[nH]c2cc([N+](=O)[O-])ccc12)C(=O)O` (stereo not given), the TGI in [1], in assay [2], in assay [3], in assay [4], in assay [5] and in assay [6] was more than 100 µM each time. Also, the TGI in assay [7], in [8], in [9] and in assay [10] was more than 100 µM throughout.
Regarding `CS[C@]12[C@@H]3C(=O)N(C)C(=O)[C@@H]3[C@](C)(C(=O)N1C)C(=O)N2c1ccccc1`, the TGI in assay [1], in assay [2], in assay [3], in [4], in assay [5] and in assay [6] was more than 100 µM in each case. For the same molecule, the TGI in assay [7], in [8], in [9] and in assay [10] was more than 100 µM in each case.
With `CCCCCCCCCC(=O)N[C@@H](c1ccco1)[C@@H](O)C(=O)O[C@H]1C[C@@]2(O)[C@@H](OC(=O)c3ccccc3)[C@@H]3[C@]4(OC(C)=O)CO[C@@H]4C[C@H](O)[C@@]3(C)C(=O)[C@H](OC(C)=O)C(=C1C)C2(C)C`, the TGI in assay [1] is 2.3 µM; in [2], 9.22 µM; in assay [3], 0.0483 µM; in [4], more than 35.1 µM; in assay [5] it was 1.81 µM; in assay [6] it was 3.48 µM. Also, the TGI in assay [7] was found to be 11 µM; in assay [8], 0.00909 µM; in assay [9], 1.13 µM; in assay [10] it was 14.8 µM.
Consider `COC(=O)c1c(CC(Cc2ccc3c(c2)CCCC3)C(=O)OC)ccc2c1CCCC2` (stereo not given), for which the TGI in assay [1], in assay [2], in [3], in assay [4], in [5] and in assay [6] was more than 100 µM throughout. For the same molecule, the TGI in assay [7], in assay [8], in [9] and in [10] was more than 100 µM throughout.
In the case of `Cc1ccc(S(=O)(=O)[C@@H](Cl)[C@H]2N=C(Cl)NN=C2c2ccccc2)cc1`, the TGI in assay [1] was 83.1 µM; in [2], more than 100 µM; in [3], more than 100 µM; in assay [4] it was 39.5 µM; in [5], 89.6 µM; in assay [6], 31.3 µM. The TGI in [7] was 44.6 µM; in assay [8], 74.4 µM; in assay [9] it was more than 100 µM; in [10], 36.1 µM.
As for `O=CC(O)C(O)C(O)C1CNC(=S)O1` (stereo not given), the TGI in assay [1], in assay [2], in assay [3], in assay [4], in assay [5] and in assay [6] was more than 100 µM each time. The TGI in assay [7], in assay [8], in [9] and in assay [10] was more than 100 µM each time.
For `[O-][n+]1c(CN2CCCCC2)nc2cccc3c2c1-c1ccccc1-3`, the TGI in [1] was more than 100 µM; in [2], 67.5 µM; in [3], more than 100 µM; in assay [4], more than 100 µM; in assay [5], 76.5 µM; in [6], 46.5 µM. The TGI in [7] was 98.2 µM; in assay [8], 58.4 µM; in assay [9] it was 38.7 µM; in [10], more than 100 µM.
Consider `Oc1ccccc1C1C=C(c2ccccc2)NC(N2CCCCC2)=C1c1nc2ccccc2[nH]1` (stereo not given), for which the TGI in assay [1] was 57.6 µM; in [2], 34.3 µM; in assay [3], 49 µM; in [4] it was 24.5 µM; in assay [5] it was 24.9 µM; in assay [6], 29.8 µM. Further, the TGI was found to be 30.9 µM in assay [7], 26.6 µM in assay [8], 24.6 µM in assay [9] and 30.6 µM in [10].
